Test results reported in patent publication US20230293475A1, “METHODS OF PROVIDING SO[…] TO SUBJECTS WITH IMPAIRED RENAL FUNCTION” (Axsome Malta Ltd., priority 2020, published 2023).

Key:
[1] = Phase 1 study, removal of solriamfetol by 4-hour hemodialysis in ESRD; assay type: in vivo, human
Experimental: (§1) Groups 1-4 received one dose of solriamfetol HCl (89.3 mg; equivalent to 75-mg solriamfetol) on day 1; Group 5 received one dose equivalent to 75-mg dose on day 1 followed by 4-hour hemodialysis (designated Group 5.2), and one dose equivalent to 75-mg solriamfetol on day 8 without hemodialysis (designated Group 5.1). All doses were administered on an empty stomach following an overnight fast except for participants in Group 5, who received a standardized snack on day 7 and breakfast early on day 8 before starting an 8-hour fast. Participants remained fasting for 4 hours after administration, with water allowed except for 1 hour before and after dosing.
Urine samples were collected predose and for the time intervals of 0-4, 4-8, 8-12, 12-24, and 24-48 hours in Groups 1-3, with additional collection for the 48-72 hour time interval in Groups 4 and 5. During the hemodialysis period on day 1 for Group 5, dialysate samples and pre- and post-dialyzer paired blood samples were collected at pre-dialysis (2 hours), and at 3, 4, 5, and 6 hours following dosing. […]
Bioanalytical analyses were performed by a central laboratory (KCAS, LLC, Shawnee, Kansas) using validated proprietary methods that included extraction/derivatization and liquid chromatography-tandem mass spectrometry (LC-MS/MS). […] Assay performance was monitored by spiking blank interference free human plasma with positive controls and internal standards to generate standard curve and quality control samples. […] Quantification was based on setting a calibration graph using the internal standard method. […]
The following plasma PK parameters were evaluated using non-compartmental analysis in Phoenix® WinNonlin® Version 6.3: Cmax; time to reach Cmax following drug administration (tmax); t½; area under the plasma concentration-time curve from time zero to time of last quantifiable concentration (AUCt); AUC from time zero to infinity (AUC∞); apparent total clearance of the drug from plasma after oral administration (CL/F); and apparent volume of distribution (Vd/F). […]

[2] = Phase 1 single-dose study, safety (treatment-emergent adverse events); assay type: in vivo, human
Experimental: In healthy subjects with normal renal function, solriamfetol HCl is renally excreted ~90% unchanged within 48 hours of administration. Thus, renal impairment, as well as hemodialysis in individuals with end-stage renal disease (ESRD), could affect the PK of solriamfetol HCl. To ascertain the precise impact of renal impairment and hemodialysis on pharmacokinetics and safety of solriamfetol RCl, a Phase 1, parallel-group, open-label, single-dose study was conducted at 2 U.S. sites. The protocol was approved by the IntegReview Institutional Review Board (Austin, Texas), and the study was conducted in compliance with the protocol, the Guideline for Good Clinical Practice E6; the US Code of Federal Regulations pertaining to conduct and reporting of clinical studies; the Clinical Trials Directive of the European Medicines Agency (Directive 2001/20/EC); and the Declaration of Helsinki. Written informed consent was obtained from each subject before enrollment in the study and before performance of any study-related procedure. See, also, Zomorodi K, Chen D, Lee L, Lasseter K, Marbury T. An Open-Label, Single-Dose, Phase 1 Study of the Pharmacokinetics and Safety of JZP-110 in Subjects With Normal or Impaired Renal Function and With End-Stage Renal Disease Requiring Hemodialysis [abstract]. Sleep. 2017;40 (suppl):A382-383.
Eligible participants were assigned to 1 of 5 groups according to renal disease status as measured by the estimated glomerular filtration rate (eGFR) on the day prior to dosing, calculated using the Modification in Diet in Renal Disease equation. Group 1 consisted of healthy participants with normal renal function (eGFR ≥ 90 mL/min/1.73 m^2) and served as the control group. Groups 2, 3, and 4 had mild, moderate, and severe renal impairment based on eGFRs of 60-89, 30-59, and < 30 mL/min/1.73 m^2, respectively. Group 5 consisted of participants with ESRD who required ≥ 3 hemodialysis treatments per week for the preceding 3 months. […] Group 1 was enrolled last to facilitate matching the mean age, BMI, and sex distribution of Groups 2-5.
as §1

[3] = 12-week placebo-controlled trials comparing various doses; cited from earlier work
[4] = Group 1 normal renal function (n = 6), single 75-mg dose
[5] = Group 2 mild renal impairment (n = 6), single 75-mg dose
[6] = Group 3 moderate renal impairment (n = 6), single 75-mg dose
[7] = Group 4 severe renal impairment (n = 6), single 75-mg dose
[8] = Group 5.1 ESRD without hemodialysis (n = 6), single 75-mg dose
[9] = Group 5.2 ESRD with hemodialysis (n = 7), single 75-mg dose

NC(=O)OC[C@H](N)Cc1ccccc1 [solriamfetol, [R]-2-amino-3-phenylpropylcarbamate]
hemodialysis clearance, lower than renal clearance in normal renal function [1]: approximately 30%
clearance ([1]; both sexes, human, dialysate, oral, 75 mg, day 1): 207 mL/min
cumulative fraction of the 75-mg dose removed over the 4-hour hemodialysis period, mean ([1]; day 1): 20.6%
aspartate aminotransferase (AST), increase to ([2]; 1 participant, Group 5, 6 days after dosing, reference range 8-40 IU/L): 66 IU/L
alanine aminotransferase (ALT), increase to ([2]; 1 participant, Group 5, 6 days after dosing, reference range 8-54 IU/L): 144 IU/L
ALT increased, number (%) of participants [2, 4]: 0
AST increased, number (%) of participants [2, 4]: 0
Any TEAE, number (%) of participants [2, 4]: 0
Headache, number (%) of participants [2, 4]: 0
Nausea, number (%) of participants [2, 4]: 0
Skin abrasion, number (%) of participants [2, 4]: 0
ALT increased, number (%) of participants [2, 5]: 0
AST increased, number (%) of participants [2, 5]: 0
Any TEAE, number (%) of participants [2, 5]: 1 (17%)
Headache, number (%) of participants [2, 5]: 0
Nausea, number (%) of participants [2, 5]: 0
Skin abrasion, number (%) of participants [2, 5]: 1 (17%)
ALT increased, number (%) of participants [2, 6]: 0
AST increased, number (%) of participants [2, 6]: 0
Any TEAE, number (%) of participants [2, 6]: 1 (17%)
Headache, number (%) of participants [2, 6]: 1 (17%)
Nausea, number (%) of participants [2, 6]: 0
Skin abrasion, number (%) of participants [2, 6]: 0
ALT increased, number (%) of participants [2, 7]: 0
AST increased, number (%) of participants [2, 7]: 0
Any TEAE, number (%) of participants [2, 7]: 0
Headache, number (%) of participants [2, 7]: 0
Nausea, number (%) of participants [2, 7]: 0
Skin abrasion, number (%) of participants [2, 7]: 0
ALT increased, number (%) of participants [2, 8]: 0
AST increased, number (%) of participants [2, 8]: 0
Any TEAE, number (%) of participants [2, 8]: 1 (17%)
Headache, number (%) of participants [2, 8]: 0
Nausea, number (%) of participants [2, 8]: 1 (17%)
Skin abrasion, number (%) of participants [2, 8]: 0
ALT increased, number (%) of participants [2, 9]: 1 (14%)
AST increased, number (%) of participants [2, 9]: 1 (14%)
Any TEAE, number (%) of participants [2, 9]: 1 (14%)
Headache, number (%) of participants [2, 9]: 0
Nausea, number (%) of participants [2, 9]: 0
Skin abrasion, number (%) of participants [2, 9]: 0
participants reporting treatment-emergent adverse events, total ([2]; all groups, 31 participants (13%)): 4
deaths or other serious AEs ([2]; all groups, single 75-mg dose): no deaths or other serious AEs
severity of all TEAEs as considered by the investigator ([2]; all groups, single 75-mg dose): mild
vital sign and ECG measurements ([2]; all groups, single 75-mg dose): No clinically significant abnormal findings
adverse effects (headache, nausea, decreased appetite, anxiety and others), dependence on dose [3]: dose-dependent
